Values of other authors as cited in patent US5300300A, “Controlled release gastroresistant pharmaceutical formulations for oral administration containing bile acids and their salts” (Alfa Wassermann S.p.A., priority 1991, dated 1994).

Experiments:
[1] = complete solubilization takes place only at this pH

Structure (SMILES): C[C@H](CCC(=O)O)[C@H]1CC[C@H]2[C@@H]3[C@@H](O)C[C@@H]4C[C@H](O)CC[C@]4(C)[C@H]3CC[C@]12C [ursodeoxycholic acid]
- dissolution in the intestine (after having crossed the stomach unabsorbed and undissolved): dissolve very slowly in the intestine
- intestinal pH needed for complete solubilization and absorption (intestinal pH, completely solubilized and absorbed only when exceeded): > 8.4 pH
- pH of complete solubilization [1]: 8.47 pH
